Read-outs that look alike come from different tables or passages of the source.
Columns and labels:
[1] = target: T1, Akt3 human enzyme (Homo sapiens, UniProt Q9Y243); experiment: Akt3 inhibition assay (IMAP FP); format: biochemical;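 also: kinase reaction run 60 min at room temperature after 30 µM ATP start, phosphorylated substrate captured on IMAP beads and read as fluorescence polarization (mP)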
T1 construct: purchased Upstate Chemicon 14-502

[2] = target: T2, p70S6K human enzyme (Homo sapiens, UniProt P23443, T412E); experiment: p70S6K inhibition assay (IMAP FP); format: biochemical;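 also: kinase reaction run at room temperature, phosphorylated substrate captured on IMAP beads and read as fluorescence polarization in mP, IC50 then converted to Ki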
T2 construct: purchased Upstate Chemicon 14-486
T2 sequence (P23443 1-421 T412E limits assumed): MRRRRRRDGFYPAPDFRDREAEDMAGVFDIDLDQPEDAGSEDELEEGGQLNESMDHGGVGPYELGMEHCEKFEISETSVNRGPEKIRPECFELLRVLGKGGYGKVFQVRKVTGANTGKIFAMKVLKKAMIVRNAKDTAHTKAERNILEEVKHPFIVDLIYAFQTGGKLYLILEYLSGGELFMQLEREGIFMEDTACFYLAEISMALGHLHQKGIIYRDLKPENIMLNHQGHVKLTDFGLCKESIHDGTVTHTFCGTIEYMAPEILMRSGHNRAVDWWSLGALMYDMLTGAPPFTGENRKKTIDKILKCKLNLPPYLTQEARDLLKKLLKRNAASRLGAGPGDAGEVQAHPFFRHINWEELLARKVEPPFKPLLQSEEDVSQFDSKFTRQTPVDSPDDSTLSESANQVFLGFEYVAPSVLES
Experimental: Inhibition of Akt3 and p70S6K activity was determined using the IMAP™ FP Progressive Binding Kit (Molecular Devices product number R8127). […] Following the pre-incubation, 30 μM ATP was added to initiate the reaction. After 60 minutes at RT, Molecular Devices IMAP™ binding solution was added to bind phosphorylated substrate. After 30 minutes of incubation in the presence of the IMAP™ beads the fluorescence polarization was read and the ratio was reported as mP. IC50 results were calculated using the Prism software from Graphpad. The Ki values were determined according to the following formula: Ki=IC50/(1+([ATP Challenge]/EC50 ATP)).

[3] = target: T3, ROCK2 (Homo sapiens, UniProt O75116); experiment: Rho kinase inhibition assay (IMAP fluorescence polarization), ROCK2; format: biochemical;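 also: kinase reaction started with 10 µM ATP and run 60 min at room temperature, then phosphorylated substrate captured on IMAP beads for 30 min and fluorescence polarization read in mP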
T3 construct: purchased Upstate/Chemicon 14-451
T3 sequence (O75116 11-552 limits assumed): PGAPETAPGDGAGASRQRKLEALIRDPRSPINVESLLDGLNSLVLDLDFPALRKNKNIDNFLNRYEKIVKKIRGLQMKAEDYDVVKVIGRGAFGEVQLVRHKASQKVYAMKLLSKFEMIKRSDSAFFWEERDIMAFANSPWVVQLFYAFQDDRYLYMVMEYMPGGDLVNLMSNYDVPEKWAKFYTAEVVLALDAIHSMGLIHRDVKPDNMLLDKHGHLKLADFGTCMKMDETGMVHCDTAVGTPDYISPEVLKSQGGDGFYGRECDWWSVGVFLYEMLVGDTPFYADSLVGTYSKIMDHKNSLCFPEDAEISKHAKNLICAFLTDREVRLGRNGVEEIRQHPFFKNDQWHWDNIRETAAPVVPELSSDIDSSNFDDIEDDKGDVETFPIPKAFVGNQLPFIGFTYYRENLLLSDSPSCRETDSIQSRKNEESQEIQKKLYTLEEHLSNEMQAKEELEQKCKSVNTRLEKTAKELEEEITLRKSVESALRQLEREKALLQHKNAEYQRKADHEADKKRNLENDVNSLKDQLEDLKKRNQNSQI
Experimental: (§1) Following the pre-incubation, 10 μM ATP was added to initiate the reaction. After 60 minutes at room temperature, Molecular Devices IMAP™ binding solution was added to bind phosphorylated substrate. After 30 minutes of incubation in the presence of the IMAP™ beads, the fluorescence polarization was read and the ratio was reported as mP. IC50 values for compounds and EC50 values for ATP were calculated using the Prism software from Graphpad.

[4] = Compound plasma concentrations in unsensitized mice at 15 min post administration; format: in vivo; conditions: mouse, 15 μmol/kg; mean compound plasma concentration in mice at 15 minutes post oral administration; read-out: Mouse Oral PK
[5] = target: T4, ROCK1 (Homo sapiens, UniProt Q13464); experiment: Rho kinase inhibition assay (IMAP fluorescence polarization), ROCK1; format: biochemical;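 also: kinase reaction run 60 min at room temperature, then phosphorylated substrate captured on IMAP beads for 30 min, with fluorescence polarization read in mP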
T4 construct: purchased Upstate/Chemicon 14-601
T4 sequence (Q13464 17-535 limits assumed): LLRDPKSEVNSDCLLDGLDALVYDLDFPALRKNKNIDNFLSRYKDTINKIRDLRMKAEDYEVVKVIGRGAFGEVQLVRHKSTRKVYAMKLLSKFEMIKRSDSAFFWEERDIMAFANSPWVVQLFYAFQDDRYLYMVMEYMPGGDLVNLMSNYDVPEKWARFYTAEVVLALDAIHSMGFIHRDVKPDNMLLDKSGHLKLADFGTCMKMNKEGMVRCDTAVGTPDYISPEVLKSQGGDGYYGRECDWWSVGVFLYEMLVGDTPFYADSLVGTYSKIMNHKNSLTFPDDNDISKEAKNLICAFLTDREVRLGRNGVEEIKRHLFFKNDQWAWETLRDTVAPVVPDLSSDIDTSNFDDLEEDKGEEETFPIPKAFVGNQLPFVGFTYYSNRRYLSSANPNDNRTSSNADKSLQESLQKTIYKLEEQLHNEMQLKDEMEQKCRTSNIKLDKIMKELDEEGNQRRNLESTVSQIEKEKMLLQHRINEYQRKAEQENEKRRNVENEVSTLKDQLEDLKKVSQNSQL
Experimental: as §1

[6] = 30 μM ATP, Ki=IC50/(1+([ATP Challenge]/EC50 ATP)), read-out: Akt3 Ki, Avg
[7] = 30 μM ATP, Ki=IC50/(1+([ATP Challenge]/EC50 ATP)), read-out: p70S6K Ki, Avg
[8] = average Ki, read-out: p70S6K Ki
[9] = 10 μM ATP, read-out: ROCK2 Ki, Avg

T1 sequence (Q9Y243 whole entry): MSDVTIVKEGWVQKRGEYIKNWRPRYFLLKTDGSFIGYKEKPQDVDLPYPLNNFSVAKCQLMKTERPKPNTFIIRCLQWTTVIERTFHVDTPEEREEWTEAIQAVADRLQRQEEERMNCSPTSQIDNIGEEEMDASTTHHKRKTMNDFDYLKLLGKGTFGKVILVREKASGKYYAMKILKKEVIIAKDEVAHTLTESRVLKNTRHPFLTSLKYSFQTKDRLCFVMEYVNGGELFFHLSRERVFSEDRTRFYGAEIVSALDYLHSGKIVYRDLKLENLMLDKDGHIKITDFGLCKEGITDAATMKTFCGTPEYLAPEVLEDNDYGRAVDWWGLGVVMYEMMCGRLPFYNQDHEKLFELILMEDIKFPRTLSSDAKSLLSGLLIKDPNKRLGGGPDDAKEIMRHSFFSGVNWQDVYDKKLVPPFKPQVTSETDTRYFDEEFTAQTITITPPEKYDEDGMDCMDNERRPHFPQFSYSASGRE

Row | SMILES | Ki [1, 6] [nM] | Ki ([1]; average Ki, read-out: Akt3 Ki) [nM] | Ki [2, 7] [nM] | Ki [2, 8] [nM] | Ki [3, 9] [nM] | Ki ([3]; average Ki, read-out: ROCK2 Ki) [nM] | concentration at 15 min [4] [nM] | Ki ([5]; Avg, 10 μM ATP) [nM] | Ki ([5]; average Ki) [nM]
1 | c1cc(CN2CCC[C@H](Nc3ccc4[nH]ncc4c3)C2)cc(C2CC2)c1 [Compound 1.186, (S)-N-(1-(3-cyclopropylbenzyl)piperidin-3-yl)-1H-indazol-5-amine] | 10200 | 10200 | 1610 | 1610 | 11.9 | 11.9 | 2170 | 129 | 129
2 | COc1ccc(CN2CCC[C@H](Nc3ccc4[nH]ncc4c3)C2)cc1 [Compound 1.079, (S)-N-(1-(4-methoxybenzyl)piperidin-3-yl)-1H-indazol-5-amine] | 7190 | 7190 | 3010 | 3010 | 4.7 | 4.7 | 2440 | 71.5 | 71.5
3 | CS(=O)(=O)Cc1cccc(CN2CCC[C@H](Nc3ccc4[nH]ncc4c3)C2)c1 [Compound 1.157, (S)-N-(1-(3-(methylsulfonylmethyl)benzyl)piperidin-3-yl)-1H-indazol-5-amine] | 29200 | 29200 | 8690 | 8690 | 8.8 | 8.8 | 357 | 264 | 264
4 | C#Cc1ccc(CN2CCC[C@H](Nc3ccc4[nH]ncc4c3)C2)cc1 [Compound 1.077, (S)-N-(1-(4-ethynylbenzyl)piperidin-3-yl)-1H-indazol-5-amine] | 5250 | 5250 | 716 | 716 | 11.1 | 11.1 | 26 | 76.1 | 76.1
5 | Oc1cccc(CN2CCC[C@H](Nc3ccc4[nH]ncc4c3)C2)c1 [Compound 1.163, (S)-3-((3-(1H-indazol-5-ylamino)piperidin-1-yl)methyl)phenol] | 4420 | 4420 | 1880 | 1880 | 2.9 | 2.9 | 10 | 33.6 | 33.6
6 | Cc1ccc(CN2CCC[C@H](Nc3ccc4[nH]ncc4c3)C2)c(C)c1 [Compound 1.155, (S)-N-(1-(2,4-dimethylbenzyl)piperidin-3-yl)-1Hindazol-5-amine] | 5680 | 5680 | 1750 | 1750 | 7 | 7 | 32 | 45.4 | 45.4
7 | NC(=O)c1cccc(CN2CCC[C@H](Nc3ccc4[nH]ncc4c3)C2)c1 [Compound 1.219, (8)-3-((3-(1H-indazol-5-ylamino)piperidin-1-yl)methyl)benzamide] | 38300 | 38300 | 4970 | 4970 | 15.4 | 15.4 | 1680 | 344 | 344
8 | CCCCS(=O)(=O)Nc1cc(CN2CCC[C@H](Nc3ccc4[nH]ncc4c3)C2)ccc1C [Compound 1.236, (S)-N-(5-((3-(1H-indazol-5-ylamino)piperidin-1-yl)methyl)-2-methylphenyl)butane-1-sulfonamide] | 3720 | 3720 | 2760 | 2760 | 2.1 | 2.1 | 48 | 49.3 | 49.3
9 | Cc1cccc(CN2CCC[C@H](Nc3ccc4[nH]ncc4c3)C2)c1 [Compound 1.171, (S)-N-(1-(3-methylbenzyl)piperidin-3-yl)-1H-indazol-5-amine] | 9330 | 9330 | 3420 | 3420 | 16 | 16 | 369 | 109 | 109
10 | Cc1ccc(CN2CCC[C@H](Nc3ccc4[nH]ncc4c3)C2)cc1NS(C)(=O)=O [Compound 1.233, (S)-N-(5-((3-(1H-indazol-5-ylamino)piperidin-1-yl)methyl)-2-methylphenyl)methanesulfonamide] | 2630 | 2630 | 2000 | 2000 | 1.3 | 1.3 | 41 | 47.2 | 47.2
11 | Cc1ccc(CN2CCC[C@@H](Nc3ccc4[nH]ncc4c3)C2)c(C)c1 [Compound 1.137, (R)-N-(1-(2,4-dimethylbenzyl)piperidin-3-yl)-1H-indazol-5-amine] | 198 | 198 | 354 | 354 | 5.1 | 7.2 | 557 | 25.8 | 36.3
12 | c1ccc2c(CN3CCC[C@@H](Nc4ccc5[nH]ncc5c4)C3)c[nH]c2c1 [Compound 1.252, (R)-N-(1-((1H-indol-3-yl)methyl)piperidin-3-yl)-1H-indazol-5-amine] | 205 | 205 | 171 | 171 | 4.5 | 4.5 | 1260 | 30.5 | 30.5
13 | CSc1cccc(CN2CCC[C@H](Nc3ccc4[nH]ncc4c3)C2)c1 [Compound 1.158, (S)-N-(1-(3-(methylthio)benzyl)piperidin-3-yl)-1H-indazol-5-amine] | 5910 | 5910 | 1970 | 1970 | 5.1 | 5.1 | 102 | 64.1 | 64.1
14 | c1cc(N[C@@H]2CCN(Cc3ccc4occc4c3)C2)c2ccncc2c1 [Compound 2.055, (R)-N-(1-(benzofuran-5-ylmethyl)pyrrolidin-3-yl)isoquinolin-5-amine] | 978 | 978 | 312 | 312 | 6.4 | 6.4 | 656 | 16 | 16
15 | c1cc2cc(CN3CCC[C@H](Nc4ccc5[nH]ncc5c4)C3)ccc2[nH]1 [Compound 1.149, (S)-N-(1-((1H-indol-5-yl)methyl)piperidin-3-yl)-1H-indazol-5-amine] | 7400 | 7400 | 1890 | 1890 | 4.2 | 4.2 | 1560 | 46.8 | 46.8
16 | OCCn1ccc2ccc(CN3CC[C@@H](Nc4cccc5cnccc45)C3)cc21 [Compound 2.060, (R)-2-(6-((3-(isoquinolin-5-ylamino)pyrrolidin-1-yl)methyl)-1H-indol-1-yl)ethanol] | 329 | 329 | 181 | 181 | 3.2 | 3.2 | 308 | 4.9 | 4.9
17 | NC(=O)COc1cccc(CN2CCC[C@H](Nc3ccc4[nH]ncc4c3)C2)c1 [Compound 1.195] | 22000 | 22000 | 2730 | 2730 | 10.3 | 10.3 | 108 | 196 | 196
